Measured values as given in patent US20100120871A1, “HAIR CARE COMPOSITIONS, METHODS, AND ARTICLES OF COMMERCE THAT CAN INCREASE THE APPEARANCE OF THICKER AND FULLER HAIR” (priority 2008, published 2010).

Test system: primary human dermal papilla cells
Experiment: Survival of metabolically stressed primary human dermal papilla cells (ATP, Cell Titer Glo)
Assay type: cell-based
Design: unit not given here
Conditions: DP cells metabolically stressed 48 hours in reduced media, ATP by Cell Titer Glo, vehicle = 0
Experimental: Primary human dermal papilla cells were metabolically stressed for 48 hours in reduced standard tissue culture media. During this period of stress the cells were treated with the mixtures below dosed from a DMSO vehicle. After 48 hours the metabolic activity of the cells was measured by the amount of ATP using the Cell Titer Glo™ kit (Promega).
The dermal papilla, in normal human hair, is the control center for hair diameter. Increasing survival of dermal papilla cells in situ leads to increased hair diameter. Accordingly, an increase in survival of dermal papilla cells correlates with an increase in hair diameter.

| SMILES | Survival (Table 2A) | Survival (Table 2B) | Survival (Table 3) | Survival (Table 1A) | Survival (Table 1B) |
| --- | --- | --- | --- | --- | --- |
| OCc1c[nH]c2ccccc12 [Example I3C, Indole-3-Carbinol] | −0.16 | 0.08 | – | – | – |
| OCCc1c[nH]c2ccccc12 [HI, Tryptophol] | – | – | 1.72 | – | – |
| O=C(O)Cc1c[nH]c2ccccc12 [IAA, indole-3-acetic acid] | – | – | – | −0.17 | −0.18 |
| NC(=O)c1cccnc1 [Niacinamide, niacinamide] | −0.16 | 0.1 | – | −0.02 | −0.02 |
| CC(C)(CO)[C@@H](O)C(=O)NCCCO [Panthenol, panthenol] | −0.01 | −0.13 | – | −0.17 | −0.17 |
